Where two headings read alike, the source gives them in different places.
Experiments:
AChE [1] = molecular target: T1, AChE (Electrophorus electricus, UniProt O42275); assay: Far-UV CD spectra, secondary structure of AChE; details: c(AChE) = 0.75 µM
T1 construct: purchased Sigma-Aldrich Co. (St. Louis, MO, USA)
Method: Far-UV CD spectra were measured using a spectrometer (MOS 450 CD; Bio-Logic, Claix, France) with a 1.0 mm path length quartz cuvette. All the spectra were measured in the 200–240 nm range at 25 °C, and the associated scan speed was 60 nm min^−1. The AChE in the PBS was completely blended with baicalein at varying concentrations and then equilibrated for three min before CD measurements. The spectra were amended by subtracting the spectrum of the buffer with that of baicalein at the same concentration as the sample solution. Three scans were conducted, and the ellipticity in millidegrees indicated the results. The contents of the discrepant secondary structures (α-helix, β-sheet, β-turn, and random coil) from AChE were measured based on CD spectroscopic data following the online SELCON3 program (http://dichroweb.cryst.bbk.ac.uk/html/home.shtml. Accessed on: 18 August 2021).

AChE [2] = molecular target: T1, AChE; assay: Fluorescence quenching and synchronous fluorescence of AChE; format: binding
Method: A spectrofluorometer (model F-7000; Hitachi, Tokyo, Japan) containing a thermostat bath was used to measure the fluorescence spectra. The AChE solution (2.5 mL; 0.17 µM) was introduced into a 1.0 cm path length quartz cell, followed by titration through the successive addition of 2.0 mM of diluted baicalein solution (to obtain the concentration range of 0–16 µM). The well-mixed solutions were set aside for three min for equilibration purposes. The fluorescence spectra were measured in the 290–450 nm range, and the relevant excitation wavelength set was 280 nm at 25 °C, 31°C, and 37 °C. Excitation and emission bandwidths were 2.5 nm. In addition, synchronous fluorescence spectra for AChE with baicalein were conducted by fixing the interval of excitation and emission wavelength constants at 15 nm and 60 nm. Fluorescence data were amended according to our previous reports to erase the re-absorption possibility and the inner filter effects of UV absorption.
The binding constant (Ka) for the AChE–bacalein complex and the binding site number (n) were measured using Equation (3):(3) logF0−F/F=nlogKa−nlog1/(Qt)−(F0−F)(Pt)/F0
In general, four noncovalent interaction forces exist between small molecules and macromolecules, namely hydrogen bonds, van der Waals forces, electrostatic forces, and hydrophobic interactions. To identify the binding forces between bacalein and AChE, the thermodynamic parameters were measured following the Van’t Hoff equation:(4) logKa=−ΔH°/2.303RT+ΔS°/2.303R (5) ΔG°=ΔH°−TΔS° where Ka denotes the binding constant, and R represents the gas constant (8.314 J mol^−1 K^−1). The temperatures (T) used were 25 °C, 31 °C, and 37 °C.

PC12 cells = assay: Cytotoxicity in PC12 cells (MTT assay); format: cell-based; details: 1–80 µM, 24 h
Method: PC12 cells were purchased from the NanJing KeyGen Biotech Co. Ltd. (Nanjing, China). These cells were cultivated in high-glucose DMEM supplemented with 10% FBS, 100 U/mL of penicillin and 100 µg/mL of streptomycin at 37 °C under a humidified 5% CO2 atmosphere. Baicalein was dissolved in DMSO to prepare a 5 mM stock solution and diluted with serum-free media before use. PC12 cells were seeded into a 96-well plate at the density of 2 × 10 ^4 cells/well (100 μL) and cultured for 24 h. Next, the medium was changed, and the cells were treated with baicalein at 0, 1, 10, 20, 40, and 80 µM. Each concentration had six replicate wells, and the culture was continued for 24 h. To determine the effect of baicalein on cell viability, 20 µL of MTT (5 mg/mL) was added to each well. After 4 h, the resulting formazan crystals were dissolved by adding 150 μL of DMSO for 10–15 min. The absorption (O.D.) of each hole at 570 nm wavelength was measured using an enzyme-labelled instrument (Varioskan LUX; Thermo Fisher Scientific, Waltham, MA, USA). Cell viability was expressed as the percentage of the control.

AChE [3] = molecular target: T1, AChE; assay: AChE activity assay (Ellman's method, modified); format: biochemical
Method: AChE (137 U/mg, Electrophorus electricus) was provided by Sigma-Aldrich Co. (St. Louis, MO, USA), and their stock solutions with 10 U/mL concentrations were prepared with 0.1 M phosphate-buffered saline (pH 7.6) and stored at −20 °C. Baicalein (purity ≥ 98%) was obtained from the National Institute for the Control of Pharmaceutical and Biological Products (Beijing, China) and dissolved in ethanol to prepare the stock solution (5 mM). 5,5-Dithiobis-(2-nitrobenzoic acid) (DTNB), acetylthiocholine iodide (ATCI), galathamine hydrobromide, and 3-(4, 5-dimethylthiazol-2-yl)-2,5-diphenyltetrazolium bromide (MTT) were provided by Aladdin Chemistry Co., Ltd. (Shanghai, China). Foetal bovine serum (FBS) was purchased from Gibco (Carlsbad, CA, USA). Dulbecco’s modified Eagle’s medium (DMEM), trypsin, and other cell culture reagents were purchased from Solarbio (Beijing, China). All remaining reagents were of analytical grade.
AChE activity was evaluated per Ellman’s method, albeit with a slight modification. Quartz cuvettes (3 mL) were utilised for measuring the assay mixture activity. Solutions containing varying amounts of baicalein, phosphate-buffered saline (0.1 M, pH 7.6), and 50 µL of AChE (2 U/mL, 3.4 × 10^−8 M) were cultivated in 30 min at 25 °C. After the pre-incubation period, 50 μL of 5, 5-dithiobis-(2-nitrobenzoic) acid (DNTB, 5 mM) was added. The reaction was then initiated with 50 μL of acetylthiocholine iodide (ATCI, 15 mM). The absorbance at 412 nm was monitored every 5 s with the TU−1901 dual-beam UV–Vis Spectrophotometer (Persee; Beijing, China). The samples were measured thrice, and the average value was considered. Enzyme activity without baicalein was identified to be 100%. […] Galantamine hydrobromide served as the positive control.

AChE [4] = molecular target: T1, AChE; assay: Time-course test of AChE inactivation kinetics; format: biochemical
Method: The kinetic process and rate constants for enzyme inactivation were determined through the time-course test. Baicalein with concentrations of 2, 4, 8, and 16 µM was used for analysing the time-course. Enzyme activity at each concentration was measured every 3 min for 0–30 min, every 6 min for 30–60 min, and then at 70 and 80 min.

AChE [5] = molecular target: T1, AChE; assay: Kinetic analysis of the inhibitory type (Lineweaver–Burk plots, v vs. AChE plots); format: biochemical
From the text: The Lineweaver–Burk plots and Michaelis–Menten enzyme kinetics were applied to analyse the inhibitory type. For competitive type inhibition, the dynamic double reciprocal equation was used as follows:(1) 1/v=Km/vmax(1+(I) /Ki)1/(S)+1/vmax (2) Kmapp=Km(I)/Ki+Km where (I) and (S) denote the inhibitor and substrate concentrations, respectively; ν represents the enzyme reaction rate irrespective of the presence of baicalein; νmax is the maximum catalytic reaction rate; Ki, Km, and Kmapp stand for the inhibition constant, Michaelis−Menten constant, and apparent Michaelis constant, respectively.

[6] = Van't Hoff equation, 25, 31, 37 °C

T1 sequence (O42275 24-633): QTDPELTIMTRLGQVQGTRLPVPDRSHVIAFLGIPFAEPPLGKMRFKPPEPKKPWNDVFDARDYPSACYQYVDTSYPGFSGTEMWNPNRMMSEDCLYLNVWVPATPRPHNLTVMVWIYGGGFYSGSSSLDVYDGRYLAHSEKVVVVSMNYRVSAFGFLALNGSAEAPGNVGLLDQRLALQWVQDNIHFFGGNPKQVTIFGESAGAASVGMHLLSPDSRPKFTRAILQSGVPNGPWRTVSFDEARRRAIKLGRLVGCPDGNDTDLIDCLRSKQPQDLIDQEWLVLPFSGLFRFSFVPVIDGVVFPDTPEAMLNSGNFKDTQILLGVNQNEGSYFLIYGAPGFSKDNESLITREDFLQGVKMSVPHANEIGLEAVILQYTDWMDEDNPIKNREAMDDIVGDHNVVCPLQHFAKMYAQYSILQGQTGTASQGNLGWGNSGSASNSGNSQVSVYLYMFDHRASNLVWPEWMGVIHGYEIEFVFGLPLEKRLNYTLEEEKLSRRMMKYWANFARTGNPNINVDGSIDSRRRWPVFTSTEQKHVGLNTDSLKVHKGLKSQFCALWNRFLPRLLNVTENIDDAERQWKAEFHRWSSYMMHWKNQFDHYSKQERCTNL

SMILES: O=c1cc(-c2ccccc2)oc2cc(O)c(O)c(O)c12 [baicalein, 5,6,7-trihydroxyflavone]
- Random coil content of AChE (AChE [1]; molar ratio baicalein:AChE 2:1): 25.36 ± 0.29%
- α-Helix content of AChE (AChE [1]; molar ratio baicalein:AChE 2:1): 38.82 ± 0.08%
- β-Sheet content of AChE (AChE [1]; molar ratio baicalein:AChE 2:1): 14.57 ± 0.13%
- β-Turn content of AChE (AChE [1]; molar ratio baicalein:AChE 2:1): 21.42 ± 0.57%
- Random coil content of AChE (AChE [1]; molar ratio baicalein:AChE 6:1): 21.71 ± 0.47%
- α-Helix content of AChE (AChE [1]; molar ratio baicalein:AChE 6:1): 42.53 ± 0.35%
- β-Sheet content of AChE (AChE [1]; molar ratio baicalein:AChE 6:1): 7.73 ± 0.03%
- β-Turn content of AChE (AChE [1]; molar ratio baicalein:AChE 6:1): 28.15 ± 0.89%
- bimolecular quenching constant Kq, magnitude order (AChE [2]; 25-37 °C): ~10^13 L mol^−1 s^−1
- Kd (AChE [2]; 25-37 °C, read-out: binding constant, order of magnitude): ~100 µM
- binding site number n (AChE [2]; 25 °C): 0.88 ± 0.01
- quenching constant KSV (AChE [2]; 25 °C): 6.45 ± 0.02 ×10^4 L mol^−1
- ∆G° (AChE [2]; 25 °C): -22.71 ± 0.06 kJ/mol
- Kd (AChE [2]; 25 °C, read-out: binding constant Ka (converted)): 15 µM
- binding site number n (AChE [2]; 31 °C): 0.93 ± 0.03
- quenching constant KSV (AChE [2]; 31 °C): 5.78± 0.03 ×10^4 L mol^−1
- ∆G° (AChE [2]; 31 °C): -22.83 ± 0.03 kJ/mol
- Kd (AChE [2]; 31 °C, read-out: binding constant Ka (converted)): 17.1 µM
- binding site number n (AChE [2]; 37 °C): 1.13 ± 0.02
- quenching constant KSV (AChE [2]; 37 °C): 5.22± 0.07 ×10^4 L mol^−1
- ∆G° (AChE [2]; 37 °C): -22.94 ± 0.08 kJ/mol
- Kd (AChE [2]; 37 °C, read-out: binding constant Ka (converted)): 19.6 µM
- ∆H° (AChE [2]; [6]): -17.01 ± 0.02 kJ/mol
- ∆S° (AChE [2]; [6]): 19.15 ± 0.09 J mol^−1 K^−1
- synchronous fluorescence quenching ratio RSFQ, Tyr residues (AChE [2]; Δλ = 15 nm, baicalein up to 16.0 μM, c(AChE) = 0.17 µM): 58.48%
- synchronous fluorescence quenching ratio RSFQ, Trp residues (AChE [2]; Δλ = 60 nm, baicalein up to 16.0 μM, c(AChE) = 0.17 µM): 63.83%
- cytotoxicity (cell viability, MTT) (PC12 cells): nontoxic
- IC50 (AChE [3]): 6.42 ± 0.07 µM
- inhibition at 26.7 µM (AChE [3]; read-out: final inhibition rate of AChE activity): 90%
- Inactivation rate constant k (AChE [4]; baicalein 2 µM): 1.48 ± 0.03 ×10^−4 s^−1
- Inactivation rate constant k (AChE [4]; baicalein 4 µM): 2.42 ± 0.05 ×10^−4 s^−1
- Inactivation rate constant k (AChE [4]; baicalein 8 µM): 4.01 ± 0.02 ×10^−4 s^−1
- Inactivation rate constant k (AChE [4]; baicalein 16 µM): 5.18 ± 0.08 ×10^−4 s^−1
- Ki (AChE [5]; Lineweaver–Burk, baicalein 0, 4, 8, 10 µM, c(AChE) = 0.57 nM, read-out: Ki (inhibition constant)): 4.32 ± 0.26 µM
- inhibition type (AChE [5]; double reciprocal plots intersect on the Y axis): competitive
- inhibition reversibility (AChE [5]; plots of v vs. AChE concentration, baicalein 0-16 µM): reversible

SMILES: O=C(O)[C@H]1O[C@@H](Oc2cc3oc(-c4ccccc4)cc(=O)c3c(O)c2O)[C@H](O)[C@@H](O)[C@@H]1O [baicalin, reference compound]
- IC50 (AChE [3]): 204 ± 16.5 µM

Reference: paper PMC8774682, “Inhibitory Mechanism of Baicalein on Acetylcholinesterase: Inhibitory Interaction, Conformational Change, and Computational Simulation” (Foods, 2022)
